Here are results for 5 molecules from patent publication US4349547A, “Suppressing obesity and over-secretion of insulin with 2-(α-hydroxy-m-trifluoromethylbenzyl)azetidine” (priority 1979, dated 1982).

A short description of one data set: Anorectic effect in mice. Type of data set: in vivo, mouse (ICR). To be noted: 50 mg/kg oral gavage, control = 100. As to the method:
(a) Anorectic effect in mice
ICR mice, male and aged seven weeks (in groups of six individuals), which had been acclimatized to 6-hour/day feeding (CE-2 powder, commercial product of Clea Japan Ltd., Tokyo, Japan) for seven days were administered a dosage, by oral gavage, with a solution of 50 mg/kg of each test compound in 5% gum arabic at 0.5 hour before feeding on the eighth day, and the food intakes were compared with those of control mice given 5% gum arabic only. Each figure in the table is the percent food intake, with the corresponding figure for the control being 100.

The nature of the next data set: Anorectic effect in rats. The data set is classed as in vivo, rat (Sprague-Dawley). To be noted: Rattus norvegicus, oral gavage, 50% inhibition of food intake. The procedure: (b) Anorectic effect in rats
Sprague-Dawley (SD) rats, male and aged seven weeks, fasted for 24 hours (in groups of six individuals) were dosed, by oral gavage, with a solution of each test compound in 5% gum arabic, and feeding (CE-2 powder) was started at 0.5 hour after administration. The dose (ED50) which caused a 50% inhibition of food intake as compared with the control dosed with 5% gum arabic was determined.

The nature of data set [1]: Estimation of LD50 in mice. The arrangement: species or system mouse (ICR). Conditions: mouse, in vivo; oral; kept for seven days; Probit analysis. The procedure:
(e) Estimation of LD50 in mice
ICR mice, male and aged nine weeks, were used without fasting. The mice (in groups of six individuals) were orally dosed with a solution of erythro-(I) hydrochloride (333, 500 and 750 mg/kg) or erythro-(VIII) hydrochloride (750, 1100 and 1700 mg/kg) in 5% gum arabic and kept for seven days. LD50 was calculated using the Probit analysis.

A short description of data set [2]: Antiobesity action (general statement). The data set is classed as in vivo. Conditions: compared with (VII).
For data set [3] the following is noted: in vivo.
The nature of data set [4]: Toxicity (general statement). Conditions: in vivo.
The test system of data set [5] is biosynthesis of fatty acid. Briefly: Suppression of biosynthesis of fatty acid (incorporation of glucose-U-14C into liver and epididymal adipose tissue lipids). The data set is classed as in vivo, rat (SD). To be noted: Rattus norvegicus, 1 h, oral, 50% inhibition of glucose-U-14C incorporation, 60 minutes after glucose. The procedure:
(c) Suppression of biosynthesis of fatty acid
Male SD rats fasted for 24 hours, were orally dosed with erythro-(I) hydrochloride and after a lapse of 30 minutes, glucose-U-^14 C (140 μCi/2 g/kg) was orally administered. The animals were sacrificed after 60 minutes and the amounts of incorporation of glucose-U-^14 C into the liver and the epididymal adipose tissue lipids were determined to calculate the dose (ED50) which caused a 50% inhibition of glucose-U-^14 C incorporation, as compared to control rats, which had fasted, had not been so dosed, and had been orally administered with glucose-U-^14 C (140μCi/2 g/kg).

The test system of another data set is insulin secretion. The data set can be described thus: Suppression of insulin secretion (insulin area after glucose loading). Conditions: 50 mg/kg oral; glucose 3 g/kg after 30 minutes; blood at 30, 60 and 120 minutes; control 739. Type of data set: in vivo, rat (Fatty rats). As to the method:
(d) Suppression of insulin secretion
Fatty rats, female and aged 14 weeks, were used after fasting for 24 hours. The rats (in groups of five individuals) were orally dosed with a solution of 50 mg/kg of erythro-(I) hydrochloride in 5% gum arabic and, after 30 minutes, glucose (3 g/kg) was orally administered. At 30, 60 and 120 minutes after glucose loading, blood was withdrawn. The plasma samples were assayed for insulin and the insulin area was calculated.

Where [6] appears, read: 0.5 hour, read-out: ED50 0.5 hour after administration.
The mark [7] stands for this setting: 1 hour, read-out: ED50 1 hour after administration.
Where [8] appears, read: 2 hours, read-out: ED50 2 hours after administration.

Counter-ions that a name gives are not always drawn. Like-named read-outs stand apart in the source and are kept apart here.

What is called LD50 is the dose expected to kill half of the subjects tested.

`O[C@@H](c1ccccc1)[C@@H]1CCN1` (relative stereo) [Threo-(VII) hydrochloride, 2-(α-hydroxybenzyl)azetidine, reference compound]: in “Anorectic effect in mice”, the “Food intake (%) 0.5 hour after administration” value (shortened to “Food intake (%) 0.5 hour”) came out at 70.0%, the “Food intake (%) 1 hour after administration” value (“Food intake (%) 1 hour” below) was found to be 89.3% and the “Food intake (%) 2 hours after administration” value (“Food intake (%) 2 hours” below) is reported as 98.3%.
Regarding `O[C@@H](c1ccccc1)[C@H]1CCN1` (relative stereo) [Erythro-(VII) hydrochloride, 2-(α-hydroxybenzyl)azetidine, reference compound], the results for the ED50 in the data set “Anorectic effect in rats” (setting [6]), in “Anorectic effect in rats” (setting [7]) and in the data set “Anorectic effect in rats” (setting [8]) were 35 mg/kg, 50 mg/kg and 300 mg/kg, respectively. In data set [1], the LD50 at 168 h was 902 mg/kg.
Consider `OC(c1cccc(C(F)(F)F)c1)C1CCN1` (stereo not drawn) [Compound (I), 2-(α-hydroxy-m-trifluoromethylbenzyl)azetidine], for which the antiobesity action result in data set [2] is “very potent and long lasting antiobesity action, surpassing the action of (VII)”. In data set [3], the “absorbability on oral administration” value is listed as “good absorbability on oral administration”. Also, the toxicity entry in data set [4] is “low toxicity”.
As to `O[C@@H](c1cccc(C(F)(F)F)c1)[C@@H]1CCN1` (relative stereo) [Threo-(I) hydrochloride, Threo-2-(α-hydroxy-m-trifluoromethylbenzyl)azetidine hydrochloride], in the data set “Anorectic effect in mice”, the “Food intake (%) 0.5 hour” value is 55.0%, the “Food intake (%) 1 hour” value amounted to 72.0% and the “Food intake (%) 2 hours” value is recorded as 84.8%.
Turning to `O[C@@H](c1cccc(C(F)(F)F)c1)[C@H]1CCN1` (relative stereo) [Erythro-(I) hydrochloride, erythro-2-(α-hydroxy-m-trifluoromethylbenzyl)azetidine hydrochloride], in “Anorectic effect in mice”, the “Food intake (%) 0.5 hour” value was 44.0%. Moreover, the “Food intake (%) 1 hour” value in “Anorectic effect in mice” is given as 50.6%. In the data set “Anorectic effect in mice”, the “Food intake (%) 2 hours” value is recorded as 67.0%. Also, the ED50 in the data set “Anorectic effect in rats” (setting [6]) came to 20 mg/kg; in the data set “Anorectic effect in rats” (setting [7]) it was 20 mg/kg; in the data set “Anorectic effect in rats” (setting [8]), 25 mg/kg; in data set [5] (epididymal adipose tissue lipids, read-out: Epididymal adipose tissue: ED50), 20 mg/kg; in data set [5] (liver lipids, read-out: Liver: ED50), 20 mg/kg. Besides, the Insulin area with insulin secretion is listed as 51 μU/ml.hr. In addition, in data set [1], the LD50 at 168 h was 499 mg/kg.
